Several values for one entry are separate records, joined by “and”; a condition that tells them apart may be missing. Identical values can stand only once.
System: Caco-2/NKT cell co-culture
Assay: Multiplex xMAP cytokine levels, Caco-2/NKT co-culture stimulated with LL-37
Type: cell-based, human
Conditions: NKT/Caco-2 co-culture, 1 µM LL-37, 24 h, n=2
Description: Caco-2 cell line (ATCC HTB-37) was cultured in a humidified CO2-incubator (5% CO2, 37 °C) in the complete DMEM/F12 (1:1) medium (Gibco, Waltham, MA, USA) containing 10% fetal bovine serum (FBS, Gibco) and 1X antibiotic–antimycotic solution (Gibco). To stabilize the cell phenotype, Caco-2 cells have been subcultivated three times before seeding on the filter supports. Then, Caco-2 cells were seeded at a density of 2 × 10^5 cells/cm^2 onto 24-well Millicell cell culture inserts (PC, 0.4-μm pore size, 0.6 cm^2 surface area, cat. #PIHP01250) (Millipore, Burlington, MA, USA), precoated with 0.2% bovine gelatin (Sigma-Aldrich, Saint Louis, MO, USA). After seeding, Caco-2 cells were grown in the same complete medium with re-feeding every 2–3 days until polarization of the monolayer occurred. The functional polarity of the monolayers was developed when transepithelial electrical resistance (TEER) between the apical and basolateral surfaces of the monolayers reached […] as measured by the electrical resistance system Millicell-ERS Voltohmmeter (Millipore, Burlington, MA, USA). Grown cell monolayers were used in transport and cytokine production experiments between the 21st and 29th days.
NKT cells (CD3^+CD56^+) were isolated from PBMCs using the FACSVantageDiVa cell sorter (Becton Dickinson, Franklin Lakes, NJ, USA), equipped with 405, 488, and 643 nm lasers (Supporting Materials, Figure S1). PBMCs were re-suspended in the FACS buffer (PBS containing 0.5% BSA and 2 mM EDTA) and labeled with monoclonal mouse anti-human CD3-APC (clone UCHT1, Beckman Coulter, Pasadena, CA, USA) and mouse anti-human CD56-PE/Cy7 (clone N901, Beckman Coulter) antibodies to isolate NKT cells (CD3^+CD56^+).
Sorted NKT cells were expanded by stimulation with Dynabead Human T-Expander CD3/CD28 magnetic beads (Gibco) in RPMI-1640 medium containing 10% FBS, 1X antibiotic–antimycotic solution, 100 U/mL IL-2 (Gibco), and 50 ng/mL IL-7 (Sci-Store). CD3/CD28 magnetic beads were subsequently removed with a magnet. Expanded NKT cells were washed out of the cytokines and cryopreserved.
Primary blood monocytes, moDCs, and NKT cells were seeded in 600 µL of complete RPMI-1640 with 10% Human AB serum (Capricorn Scientific, Ebsdorfergrund, Germany) and supplemented with 1X antibiotic–antimycotic solution into the wells of 24-well plates at a density of 3–7 × 10^5 cells/well 24 h before the experiment. Then, 24 h later, the medium in each well was replaced by the same medium with 1 µM of LL-37 for the sample wells or fresh medium alone for the control wells, and the permeable inserts with the Caco-2 monolayer with TEER > 400 Ω × cm^2, containing 400 μL of the complete medium in their apical chamber, were immediately placed into the appropriate wells. Also, inserts with the Caco-2 monolayer were placed in cell-free wells of 24-well plates in the same complete RPMI-1640 medium with or without 1 µM of LL-37 as controls. Cells were kept in a CO2-incubator (5% CO2, 37 °C) for another 24 h. Then, culture medium from each well was collected, centrifuged, and frozen at −70 °C.
To quantitatively evaluate a broad spectrum of analytes secreted by human cell cultures at the protein level, multiplex xMAP technology was used. […]

Substance: LL-37: the only human cathelicidin, host defense antimicrobial peptide of 37 a.a. residues, produced by solid-phase peptide synthesis
- IL-18 level (control 0.74): 0.52 pg/mL
- MDC level (control 1.37): 0.58 pg/mL
- IL-2 level (control 1.49): 1.16 pg/mL
- IL-6 level (control 1.7): 1.09 pg/mL
- FLT-3L level (control 2.11): 1.96 pg/mL
- IL-8 level (control 3.74): 5.93 pg/mL
- IFNa2 level (control 4): <3.88↓ pg/ml
- IL-4 level (control 4.85): 6.05 pg/mL
- IL-9 level (control 5.8): 5.8 pg/mL
- IFNg level (control 6.08): 5.17 pg/mL
- MCP-3 level (control 7.84): 7.84 pg/mL
- IL-1a level (control 9.17): 10.05 pg/mL
- TNFb level (control 12.53): 16.33 pg/mL
- TNFa level (control 15.69): 16.61 pg/mL
- sCD40L level (control 23.6): 23.6 pg/mL
- IL-22 level (control 27.2, p = 0.093): 34 pg/mL and 34.37 pg/mL
- PDGF-AB/BB level (control 29.35): 41.49 pg/mL
- GROa level (control 30.74): 50.06 pg/mL
- FGF-2 level (control 35.81): 41.88 pg/mL
- IL-27 level (control 35.81): 51.37 pg/mL
- MIP-1b level (control 36.43): 42.84 pg/mL
- MIG level (control 53.25): 70 pg/mL
- M-GSF level (control 55.64): 47.83 pg/mL
- GM-CSF level (control 69.7): 65.72 pg/mL
- IP-10 level (control 141.7): 206.59 pg/mL
- IL-13 level (control 179.71): 178.25 pg/mL
- PDGF-AA level (control 200.08): 182.58 pg/mL
- IL-5 level (control 246.49): 258.81 pg/mL
- MIP-1a level (control 399.48): 471.29 pg/mL
- RANTES level (control 718.58): 908.6 pg/mL
- VEGFa level (control 951.17): 1907 pg/mL
- IL-7 level (control <0.30): <0.30↓ pg/ml
- IL-3 level (control <0.55): <0.55↓ pg/ml
- TGF-a level (control <0.68): <0.68↓ pg/ml
- IL-17A level (control <0.70): <0.70↓ pg/ml
- IL-1b level (control <0.74): <0.74↓ pg/ml
- IL-1RA level (control <0.93): <0.93↓ pg/ml
- IL-10 level (control <1.35): <1.35↓ pg/ml
- MCP-1 level (control <1.35): 2.13 pg/mL
- IL-15 level (control <1.54): <1.54↓ pg/ml
- EGF level (control <1.60): 2.26 pg/mL
- IL-12 (p70) level (control <1.71): <1.71↓ pg/ml
- G-CSF level (control <2.32): <2.32↓ pg/ml
- Eotaxin level (control <2.91): <2.91↓ pg/ml
- IL-12 (p40) level (control <3.33): <3.33↓ pg/ml
- IL-17F level (control <12.19): <12.19↓ pg/ml
- Fractalkine level (control <18.09): 19.78 pg/mL
- IL-17E/IL-25 level (control <19.43): <19.43↓ pg/ml

Reference: paper PMC10526274, “Epithelial-Immune Cell Crosstalk Determines the Activation of Immune Cells In Vitro by the Human Cathelicidin LL-37 at Low Physiological Concentrations” (Biomolecules, 2023)
